Earlier results in article PMC12472391, “Borylated Five-Membered Ring Iminosugars: Synthesis, Spectroscopic Analysis, and Biological Evaluation for Glycosidase Inhibition and Anticancer Properties for Application in Boron Neutron Capture Therapy (BNCT)—Part 1” (Pharmaceuticals, 2025).
Structures can show the parent of a compound that is named as a salt. Where two headings read alike, the source gives them in different places.

How the values were obtained:
Conditions in all cases: cited from earlier work
[1] = target: β-D-galactosidase (E. coli) (Escherichia coli, UniProt P00722)
[2] = test system: α-D-mannosidase (Golgi II); set-up: method as in PMID 2706004
β-D-mannosidase = test system: β-D-mannosidase; set-up: method as in PMID 2706004
[3] = test system: β-D-N-acetylhexosaminidase; set-up: method as in PMID 2706004
α-L-fucosidase = test system: α-L-fucosidase; set-up: method as in PMID 2706004
[4] = test system: α-D-mannosidase (lysosomal acidic); set-up: method as in PMID 2706004
α-D-glucosidase = test system: α-D-glucosidase; set-up: method as in PMID 31557624
aldose reductase = test system: aldose reductase; set-up: method as in PMID 31557624
[5] = test system: β-D-glucosidase (bovine liver); set-up: method as in PMID 31944194
[6] = target: fruit fly lysosomal acidic α-D-mannosidase; set-up: method as in PMID 29323461
β-D-glucosidase (almond) = test system: β-D-glucosidase (almond); set-up: method as in PMID 31944194
[7] = test system: amyloglucosidase (A. niger); set-up: method as in PMID 31944194
[8] = target: fruit fly Golgi II α-D-mannosidase; set-up: method as in PMID 29323461
[9] = test system: α-D-mannosidase (neutral); set-up: method as in PMID 8457203
[10] = test system: α-L-fucosidase (bovine kidney); set-up: method as in PMID 31944194
[11] = test system: α-D-mannosidase (Golgi II); set-up: method as in PMID 8457203
α-D-glucosidase (rice) = α-D-glucosidase (rice) (Oryza sativa subsp. japonica, UniProt Q653V7); set-up: method as in PMID 31944194
[12] = target: T1, β-D-glucuronidase (E. coli) (Escherichia coli, UniProt P05804); set-up: method as in PMID 31944194
T1 construct: purchased Sigma-Aldrich Co

α-D-glucosidase (yeast) = target: T2, α-D-glucosidase (yeast) (Saccharomyces cerevisiae, UniProt P53341); set-up: method as in PMID 31944194
T2 construct: purchased Sigma

[13] = test system: α-D-mannosidase (lysosomal acidic); set-up: method as in PMID 8457203
[14] = test system: trehalase (porcine kidney); set-up: method as in PMID 31944194
[15] = target: T3, α-D-mannosidase (Jack bean) (Canavalia ensiformis, UniProt C0HJB3); set-up: method as in PMID 31944194
T3 construct: purchased Sigma
T3 sequence (C0HJB3 1-981): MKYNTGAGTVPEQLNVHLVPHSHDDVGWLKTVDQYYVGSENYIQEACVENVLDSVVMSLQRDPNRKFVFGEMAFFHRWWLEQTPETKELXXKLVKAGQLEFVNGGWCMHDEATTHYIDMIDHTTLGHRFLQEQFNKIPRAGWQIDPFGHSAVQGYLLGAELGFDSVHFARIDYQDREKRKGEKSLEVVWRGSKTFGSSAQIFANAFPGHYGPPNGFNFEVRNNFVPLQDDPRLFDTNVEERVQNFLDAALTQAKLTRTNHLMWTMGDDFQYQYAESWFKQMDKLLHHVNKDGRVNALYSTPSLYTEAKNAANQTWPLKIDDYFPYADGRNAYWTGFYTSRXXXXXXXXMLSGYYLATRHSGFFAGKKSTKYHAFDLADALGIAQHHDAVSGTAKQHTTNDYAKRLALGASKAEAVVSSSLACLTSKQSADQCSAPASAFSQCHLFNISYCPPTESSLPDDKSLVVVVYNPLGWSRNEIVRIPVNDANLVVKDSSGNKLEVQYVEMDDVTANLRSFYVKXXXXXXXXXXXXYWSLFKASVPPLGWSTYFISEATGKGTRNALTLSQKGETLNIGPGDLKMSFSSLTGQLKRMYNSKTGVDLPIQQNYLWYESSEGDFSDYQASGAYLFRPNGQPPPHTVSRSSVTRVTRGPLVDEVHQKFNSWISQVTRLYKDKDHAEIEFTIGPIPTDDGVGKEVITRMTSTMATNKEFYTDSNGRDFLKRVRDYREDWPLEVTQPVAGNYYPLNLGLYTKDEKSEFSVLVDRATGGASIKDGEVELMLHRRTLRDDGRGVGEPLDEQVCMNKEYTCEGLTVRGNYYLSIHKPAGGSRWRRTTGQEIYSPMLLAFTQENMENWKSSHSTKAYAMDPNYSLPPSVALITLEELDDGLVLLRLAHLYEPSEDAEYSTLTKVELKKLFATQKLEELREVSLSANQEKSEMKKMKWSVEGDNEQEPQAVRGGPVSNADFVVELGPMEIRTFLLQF

[16] = target: T4, β-D-galactosidase (bovine liver) (Bos taurus, UniProt Q58D55); set-up: method as in PMID 31944194
T4 sequence (Q58D55 28-653): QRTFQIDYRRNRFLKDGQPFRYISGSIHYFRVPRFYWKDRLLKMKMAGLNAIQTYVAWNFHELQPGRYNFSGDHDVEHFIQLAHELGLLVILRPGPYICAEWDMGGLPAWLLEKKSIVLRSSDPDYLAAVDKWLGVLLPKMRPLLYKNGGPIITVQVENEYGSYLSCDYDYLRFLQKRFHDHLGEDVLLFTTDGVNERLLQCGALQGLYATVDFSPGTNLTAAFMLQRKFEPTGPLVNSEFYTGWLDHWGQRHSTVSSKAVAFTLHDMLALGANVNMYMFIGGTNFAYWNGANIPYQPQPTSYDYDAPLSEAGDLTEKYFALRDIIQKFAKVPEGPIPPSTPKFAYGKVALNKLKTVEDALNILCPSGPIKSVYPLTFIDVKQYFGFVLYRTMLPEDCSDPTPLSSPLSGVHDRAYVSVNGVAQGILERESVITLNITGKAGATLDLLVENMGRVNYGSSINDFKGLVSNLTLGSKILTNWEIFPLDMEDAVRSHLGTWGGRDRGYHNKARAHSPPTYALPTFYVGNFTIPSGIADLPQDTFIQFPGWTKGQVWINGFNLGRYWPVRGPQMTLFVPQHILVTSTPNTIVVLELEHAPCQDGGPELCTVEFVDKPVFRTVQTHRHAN

[17] = test system: α-D-galactosidase (coffee bean); set-up: method as in PMID 31944194
β-D-mannosidase (snail) = test system: β-D-mannosidase (snail); set-up: method as in PMID 31944194
[18] = test system: α-D-glucosidase (rat intestinal maltase); set-up: method as in PMID 31944194
[19] = target: β-D-glucosidase (human lysosome) (Homo sapiens, UniProt P04062); set-up: method as in PMID 31944194
[20] = test system: α-L-rhamnosidase (P. decumbens); set-up: method as in PMID 31944194
[21] = target: T3, α-D-mannosidase (Jack bean)
[22] = test system: α-D-galactosidase (coffee bean)

β-D-galactosidase (E. coli), sequence (P00722 2-1024): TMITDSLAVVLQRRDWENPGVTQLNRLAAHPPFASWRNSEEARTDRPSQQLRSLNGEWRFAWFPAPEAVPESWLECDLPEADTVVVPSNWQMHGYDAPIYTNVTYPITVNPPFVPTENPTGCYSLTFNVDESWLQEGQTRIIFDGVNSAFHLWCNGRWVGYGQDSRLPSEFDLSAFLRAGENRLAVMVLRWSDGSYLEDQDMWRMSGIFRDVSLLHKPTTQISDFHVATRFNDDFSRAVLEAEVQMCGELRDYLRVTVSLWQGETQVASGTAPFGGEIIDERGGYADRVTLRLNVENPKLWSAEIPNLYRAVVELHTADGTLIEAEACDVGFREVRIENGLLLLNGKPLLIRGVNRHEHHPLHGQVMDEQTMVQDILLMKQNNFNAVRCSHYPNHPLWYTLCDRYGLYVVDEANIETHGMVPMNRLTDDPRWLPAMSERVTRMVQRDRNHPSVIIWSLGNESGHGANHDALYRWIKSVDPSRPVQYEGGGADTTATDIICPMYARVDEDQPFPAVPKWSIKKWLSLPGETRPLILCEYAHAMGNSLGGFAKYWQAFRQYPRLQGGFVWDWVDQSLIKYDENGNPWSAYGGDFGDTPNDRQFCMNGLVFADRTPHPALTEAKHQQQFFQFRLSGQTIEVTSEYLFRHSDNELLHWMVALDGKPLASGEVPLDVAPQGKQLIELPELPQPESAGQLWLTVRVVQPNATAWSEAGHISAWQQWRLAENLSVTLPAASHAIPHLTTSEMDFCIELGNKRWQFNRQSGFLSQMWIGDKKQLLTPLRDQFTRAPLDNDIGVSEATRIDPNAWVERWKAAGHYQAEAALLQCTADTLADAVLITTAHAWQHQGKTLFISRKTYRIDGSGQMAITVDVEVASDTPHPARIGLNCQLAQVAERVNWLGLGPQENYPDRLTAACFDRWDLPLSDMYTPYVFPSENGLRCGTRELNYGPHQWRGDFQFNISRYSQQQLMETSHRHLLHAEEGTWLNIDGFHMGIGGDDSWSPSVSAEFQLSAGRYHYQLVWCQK
T2 sequence (P53341 whole entry): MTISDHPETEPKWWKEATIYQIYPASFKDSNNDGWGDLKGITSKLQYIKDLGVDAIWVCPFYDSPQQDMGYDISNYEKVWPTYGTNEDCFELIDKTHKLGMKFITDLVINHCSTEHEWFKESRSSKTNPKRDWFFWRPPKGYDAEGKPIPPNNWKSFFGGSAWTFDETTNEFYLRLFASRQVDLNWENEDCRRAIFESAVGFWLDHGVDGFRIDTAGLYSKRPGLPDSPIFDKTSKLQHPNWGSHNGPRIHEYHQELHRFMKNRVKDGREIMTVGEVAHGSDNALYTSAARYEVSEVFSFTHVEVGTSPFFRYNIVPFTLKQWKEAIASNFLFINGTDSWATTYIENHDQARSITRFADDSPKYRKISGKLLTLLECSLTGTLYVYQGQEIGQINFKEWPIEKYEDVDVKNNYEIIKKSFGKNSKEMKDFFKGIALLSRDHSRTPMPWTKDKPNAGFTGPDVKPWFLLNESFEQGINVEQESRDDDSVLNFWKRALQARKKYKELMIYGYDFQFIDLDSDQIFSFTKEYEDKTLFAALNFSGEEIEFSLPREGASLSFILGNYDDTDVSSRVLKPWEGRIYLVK
α-D-glucosidase (rice), sequence (Q653V7 34-885): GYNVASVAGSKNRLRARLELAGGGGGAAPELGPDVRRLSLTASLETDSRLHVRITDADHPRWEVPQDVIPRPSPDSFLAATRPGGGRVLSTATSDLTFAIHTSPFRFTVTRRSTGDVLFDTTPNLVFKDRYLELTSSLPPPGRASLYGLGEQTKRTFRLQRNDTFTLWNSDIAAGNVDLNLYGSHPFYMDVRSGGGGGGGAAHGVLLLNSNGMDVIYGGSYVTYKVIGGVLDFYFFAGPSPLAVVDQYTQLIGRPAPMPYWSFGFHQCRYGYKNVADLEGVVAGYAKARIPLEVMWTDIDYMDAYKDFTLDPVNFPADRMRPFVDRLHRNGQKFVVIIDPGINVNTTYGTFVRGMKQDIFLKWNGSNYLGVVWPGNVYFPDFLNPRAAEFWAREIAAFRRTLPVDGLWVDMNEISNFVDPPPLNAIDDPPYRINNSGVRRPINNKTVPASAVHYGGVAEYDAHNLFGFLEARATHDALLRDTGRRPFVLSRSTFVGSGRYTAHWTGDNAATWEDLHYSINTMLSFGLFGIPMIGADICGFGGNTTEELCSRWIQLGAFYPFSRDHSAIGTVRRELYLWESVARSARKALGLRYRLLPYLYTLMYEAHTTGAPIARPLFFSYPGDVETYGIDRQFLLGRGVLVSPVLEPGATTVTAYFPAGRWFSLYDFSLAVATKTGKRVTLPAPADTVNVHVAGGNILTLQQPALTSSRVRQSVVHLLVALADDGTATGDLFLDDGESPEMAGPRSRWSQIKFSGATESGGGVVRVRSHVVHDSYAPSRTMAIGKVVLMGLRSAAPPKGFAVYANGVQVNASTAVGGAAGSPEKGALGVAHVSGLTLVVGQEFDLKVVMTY
β-D-glucosidase (human lysosome), sequence (P04062 40-536): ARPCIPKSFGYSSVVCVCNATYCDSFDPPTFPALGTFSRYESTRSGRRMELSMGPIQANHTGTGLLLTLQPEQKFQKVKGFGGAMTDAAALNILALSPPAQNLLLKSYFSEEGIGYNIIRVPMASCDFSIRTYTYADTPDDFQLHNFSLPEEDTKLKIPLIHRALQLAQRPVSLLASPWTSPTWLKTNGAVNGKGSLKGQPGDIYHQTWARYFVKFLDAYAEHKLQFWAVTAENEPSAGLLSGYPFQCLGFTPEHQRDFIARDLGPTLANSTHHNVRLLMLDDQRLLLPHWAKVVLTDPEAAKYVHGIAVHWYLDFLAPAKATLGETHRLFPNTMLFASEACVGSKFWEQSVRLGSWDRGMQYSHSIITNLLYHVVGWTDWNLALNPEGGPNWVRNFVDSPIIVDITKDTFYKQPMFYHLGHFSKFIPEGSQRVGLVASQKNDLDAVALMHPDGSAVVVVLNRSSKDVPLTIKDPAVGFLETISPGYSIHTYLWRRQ
T1 sequence (P05804 whole entry): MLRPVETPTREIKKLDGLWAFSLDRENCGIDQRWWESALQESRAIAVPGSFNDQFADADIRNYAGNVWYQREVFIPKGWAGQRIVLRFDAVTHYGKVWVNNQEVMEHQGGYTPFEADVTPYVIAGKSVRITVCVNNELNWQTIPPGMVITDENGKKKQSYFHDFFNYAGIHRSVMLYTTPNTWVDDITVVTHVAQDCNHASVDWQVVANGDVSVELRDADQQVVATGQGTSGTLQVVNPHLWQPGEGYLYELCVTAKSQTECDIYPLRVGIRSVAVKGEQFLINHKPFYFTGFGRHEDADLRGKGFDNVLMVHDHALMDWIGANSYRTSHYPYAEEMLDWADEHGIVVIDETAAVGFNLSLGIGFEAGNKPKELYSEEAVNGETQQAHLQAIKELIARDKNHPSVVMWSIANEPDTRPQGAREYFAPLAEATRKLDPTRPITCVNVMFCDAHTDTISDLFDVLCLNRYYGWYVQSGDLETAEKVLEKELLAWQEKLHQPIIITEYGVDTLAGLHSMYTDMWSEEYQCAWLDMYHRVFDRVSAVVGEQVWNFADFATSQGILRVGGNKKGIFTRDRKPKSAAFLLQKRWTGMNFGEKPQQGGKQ

Cl.OC[C@@H](O)[C@H]1[C@H](O)[C@H](O)CN1Cc1ccccc1B(O)O [N-(2-Methylphenylboronic acid)-1,4-dideoxy-1,4-imino-D-talitol.HCl]
β-D-galactosidase (E. coli) inhibition [1]: β-D-galactosidase (E. coli) (44–55%)

OC[C@@H](O)[C@@H]1[C@@H](O)[C@@H](O)CN1Cc1ccccc1 [N-Benzyl-1,4-dideoxy-1,4-imino-D-allitol]
α-D-mannosidase Golgi II inhibition [2]: 11%
β-D-mannosidase inhibition (β-D-mannosidase): 0%
β-D-N-acetylhexosaminidase inhibition [3]: 35%
α-L-fucosidase inhibition (α-L-fucosidase): α-L-fucosidase (76%)
α-D-mannosidase lysosomal acidic inhibition [4]: 7%

OC[C@@H](O)[C@H]1[C@H](O)[C@@H](O)CN1Cc1ccccc1 [N-Benzyl-1,4-dideoxy-1,4-imino-D-galactitol]
α-D-glucosidase inhibition (α-D-glucosidase): 93.2%
IC50 (α-D-glucosidase; read-out: IC50 towards α-D-glucosidase): 40.6 µM
aldose reductase inhibition (aldose reductase): 32.6%

OC[C@@H](O)[C@@H]1[C@H](O)[C@H](O)CN1Cc1ccccc1 [N-Benzyl-1,4-dideoxy-1,4-imino-D-mannitol.HCl]
β-D-glucosidase (bovine liver) inhibition [5]: 9.5%
IC50 [6]: 1500 µM
β-D-glucosidase (almond) inhibition (β-D-glucosidase (almond)): 6.1%
amyloglucosidase (A. niger) inhibition [7]: 11.4%
IC50 [8]: 690 µM
α-D-mannosidase neutral inhibition [9]: 44%
α-L-fucosidase (bovine kidney) inhibition [10]: 8.4%
α-D-mannosidase Golgi II inhibition [11]: 72%
α-D-glucosidase (rice) inhibition (α-D-glucosidase (rice)): 34.2%
β-D-glucuronidase (E. coli) inhibition [12]: 9.8%
α-D-glucosidase (yeast) inhibition (α-D-glucosidase (yeast)): 6.5%
α-D-mannosidase lysosomal acidic inhibition [13]: 34%
trehalase (porcine kidney) inhibition [14]: 0%
α-D-mannosidase (Jack bean) inhibition [15]: 27%
β-D-galactosidase (bovine liver) inhibition [16]: 7.9%
α-D-galactosidase (coffee bean) inhibition [17]: 8.8%
β-D-mannosidase (snail) inhibition (β-D-mannosidase (snail)): 4.4%
α-D-glucosidase (rat intestinal maltase) inhibition [18]: 16.6%
β-D-glucosidase (human lysosome) inhibition [19]: 4.7%
α-L-rhamnosidase (P. decumbens) inhibition [20]: 11.5%

OC[C@@H](O)[C@H]1[C@H](O)[C@H](O)CN1Cc1ccccc1 [N-Benzyl-1,4-dideoxy-1,4-imino-D-talitol.HCl]
α-D-mannosidase (Jack bean) inhibition [21]: little inhibition
β-D-galactosidase (E. coli) inhibition [1]: little inhibition
α-D-galactosidase (coffee bean) inhibition [22]: little inhibition
